According to patent US8703805B2 (Exelixis Patent Company LLC, priority 2005, dated 2014):

Tested on: LXRα and/or LXRβ
Test: LXR/LXRE co-transfection assay (luciferase reporter, CV-1 cells)
Format: cell-based, human
Details: IC50 or EC50 for LXR (LXRα and/or LXRβ, not distinguished), tested as described in Example 109, CV-1 cells
Summary of the method: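 Luciferase readout after 20 h compound exposure at 37 °C in CV-1 cells transiently expressing human LXRα or LXRβ with RXRα and an LXRE-driven reporter. Dose-response over 8 points at ½-log spacing, 4 wells each, fitted for EC50/IC50; values average ≥3 independent experiments, efficacy as % of high control.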

| SMILES | EC50 [nM] |
| --- | --- |
| CC(C)(O)c1cccc(-n2nc(C(C)(C)O)cc2-c2ccc(-c3cccc(S(C)(=O)=O)c3)s2)c1 [Example 1226, 2-{3-[3-(1-hydroxy-1-methylethyl)-5-{5-[3-(methylsulfonyl)phenyl]-2-thienyl}-1H-pyrazol-1-yl]phenyl}propan-2-ol] | 1000 to 10000 |
| CCC(=O)c1cc(-c2ccc(-c3cccc(S(C)(=O)=O)c3)s2)n(-c2ccccc2Cl)n1 [Example 1173, 1-[1-(2-chlorophenyl)-5-{5-[3-(methylsulfonyl)phenyl]-2-thienyl}-1H-pyrazol-3-yl]propan-1-one] | < 1000 |
| CC(=O)c1ccc(-c2ccc(-c3cc(C(C)(C)O)nn3-c3ccccc3Cl)cc2)s1 [Example 1290, 1-(5-{4-[1-(2-chlorophenyl)-3-(1-hydroxy-1-methylethyl)-1H-pyrazole-5-yl]phenyl}-2-thienyl)ethanone] | 1000 to 10000 |
| Cc1cc(-n2nc(C(C)(C)O)c(Cl)c2-c2c(Cl)cccc2Cl)ccc1-c1cccc(S(C)(=O)=O)c1 [Example 1419, 2-(4-chloro-5-(2,6-dichlorophenyl)-1-(2-methyl-3′-(methylsulfonyl)biphenyl-4-yl)-1H-pyrazol-3-yl)propan-2-ol] | 1000 to 10000 |
| CC(C)(O)c1nn(-c2ccccc2F)c(-c2ccc(-c3cccc(S(C)(=O)=O)c3)s2)c1Cl [Example 23] | < 1000 |
| CC(C)(O)c1cc(-c2ccc(-c3ccc(C=O)s3)cc2)n(-c2ccccc2Cl)n1 [Example 1289, 5-{4-[1-(2-chlorophenyl)-3-(1-hydroxy-1-methylethyl)-1H-pyrazol-5-yl]phenyl}thiophene-2-carbaldehyde] | 1000 to 10000 |
| CC(C)(O)c1nn(-c2ccncc2Cl)c(-c2ccc(-c3cccc(S(C)(=O)=O)c3)s2)c1Cl [Example 125, 2-(4-chloro-1-(3-chloropyridin-4-yl)-5-(5-(3-(methylsulfonyl)phenyl)thiophen-2-yl)-1H-pyrazol-3-yl)propan-2-ol] | < 1000 |
| CC(C)(O)c1cc(-c2ccc(-c3cccc(S(C)(=O)=O)c3)cc2)n(-c2c(Cl)cccc2Cl)n1 [Example 133, 2-(1-(2,6-dichlorophenyl)-5-(3′-(methylsulfonyl)biphenyl-4-yl)-1H-pyrazol-3-yl)propan-2-ol] | < 1000 |
| CC(C)(O)c1cc(-c2cc(-c3cccc(S(C)(=O)=O)c3)cs2)n(-c2ccccc2Cl)n1 [Example 1250, 2-[1-(2-chlorophenyl)-5-{4-[3-(methylsulfonyl)phenyl]-2-thienyl}-1H-pyrazol-3-yl]propan-2-ol] | 1000 to 10000 |
| CC(C)(O)c1cc(-c2ccc(-c3cccc(S(C)(=O)=O)c3)s2)n(-c2cccc(C(F)(F)F)c2F)n1 [Example 1333, 2-(1-[2-fluoro-3-(trifluoromethyl)phenyl]-5-{5-[3-(methylsulfonyl)phenyl]-2-thienyl}-1H-pyrazol-3-yl)propan-2-ol] | 1000 to 10000 |
| CC(C)(O)c1cc(-c2ccc(-c3cccc(S(C)(=O)=O)c3)s2)n(-c2cccc(F)c2F)n1 [Example 1326, 2-[1-(2,3-difluorophenyl)-5-{5-[3-(methylsulfonyl)phenyl]-2-thienyl}-1H-pyrazol-3-yl]propan-2-ol] | < 1000 |
| CC(C)(O)c1cc(-c2ccc(-c3cc(C(F)(F)F)nn3-c3cc(Cl)ccc3Cl)s2)cc(S(C)(=O)=O)c1 [Example 1308, 2-[3-{5-[1-(2,5-dichlorophenyl)-3-(trifluoromethyl)-1H-pyrazol-5-yl]-2-thienyl}-5-(methylsulfonyl)phenyl]propan-2-ol] | < 1000 |
| CC(C)(O)c1cc(-c2ccc(-c3cccc(S(C)(=O)=O)c3)cc2)n(-c2ccccc2C(F)(F)F)n1 [Example 1201, 2-{5-[3′-(methylsulfonyl)biphenyl-4-yl]-1-[2-(trifluoromethyl)phenyl]-1H-pyrazol-3-yl}propan-2-ol] | < 1000 |
| CC(C)(O)c1nn(-c2c(Cl)cccc2Cl)c(-c2ccc(-c3cccc(S(C)(=O)=O)c3)cc2Cl)c1Cl [Example 144, 2-(4-chloro-5-(3-chloro-3′-(methylsulfonyl)biphenyl-4-yl)-1-(2,6-dichlorophenyl)-1H-pyrazol-3-yl)propan-2-ol] | < 1000 |
| CS(=O)(=O)c1cc(-c2ccc(-c3cc(C(F)(F)F)nn3-c3cc(Cl)ccc3Cl)s2)ccc1OCCO [Example 1255, 2-{[4-{5-[1-(2,5-dichlorophenyl)-3-(trifluoromethyl)-1H-pyrazol-5-yl]-2-thienyl}-2-(methylsulfonyl)phenyl]oxy}ethanol] | 1000 to 10000 |
| CC(C)(O)c1cc(-c2c(F)cccc2Cl)n(-c2ccc(-c3cccc(S(C)(=O)=O)c3)cc2Cl)n1 [Example 130, 2-(1-(3-chloro-3′-(methylsulfonyl)biphenyl-4-yl)-5-(2-chloro-6-fluorophenyl)-1H-pyrazol-3-yl)propan-2-ol] | < 1000 |
| CN(C)C(C)(C)c1cc(-c2ccc(-c3cccc(S(C)(=O)=O)c3)s2)n(-c2ccccc2Cl)n1 [Example 1172, 2-[1-(2-chlorophenyl)-5-{5-[3-(methylsulfonyl)phenyl]-2-thienyl}-1H-pyrazol-3-yl]-N,N-dimethylpropan-2-amine] | < 1000 |
| O=C(NCCN1CCOCC1)c1ccc(-c2cc(C(F)(F)F)nn2-c2ccccc2Cl)cc1 [Example 970, 4-[1-(2-chlorophenyl)-3-(trifluoromethyl)-1H-pyrazol-5-yl]-N-(2-morpholin-4-ylethyl)benzamide] | 1000 to 10000 |
| CC(C)(CN)c1cc(-c2ccc(-c3cccc(S(C)(=O)=O)c3)s2)n(-c2ccccc2Cl)n1 [Example 1192, 2-[1-(2-chlorophenyl)-5-{5-[3-(methylsulfonyl)phenyl]-2-thienyl}-1H-pyrazol-3-yl]-2-methylpropan-1-amine] | < 1000 |
| CC(C)(O)c1ccc(-c2ccc(-c3cc(C(F)(F)F)nn3-c3ncccc3C(F)(F)F)s2)cc1 [Example 1253, 2-[4-(5-{3-(trifluoromethyl)-1-[3-(trifluoromethyl)pyridin-2-yl]-1H-pyrazol-5-yl}-2-thienyl)phenyl]propan-2-ol] | 1000 to 10000 |
| CC(C)(c1cc(-c2ccc(-c3cccc(S(C)(=O)=O)c3)s2)n(-c2ccccc2Cl)n1)N1CCOCC1 [Example 1159, 4-{1-[1-(2-chlorophenyl)-5-{5-[3-(methylsulfonyl)phenyl]-2-thienyl}-1H-pyrazol-3-yl]-1-methylethyl}morpholine] | < 1000 |
| CC(C)(O)c1cc(-c2ccc(-c3cccc(S(N)(=O)=O)c3)s2)n(-c2cc(Cl)ccc2Cl)n1 [Example 1214, 3-{5-[1-(2,5-dichlorophenyl)-3-(1-hydroxy-1-methylethyl)-1H-pyrazol-5-yl]-2-thienyl}benzenesulfonamide] | 1000 to 10000 |
| CN(CC#N)Cc1cc(-c2ccc(-c3cccc(S(C)(=O)=O)c3)s2)n(-c2ccccc2Cl)n1 [Example 558, [{[1-(2-chlorophenyl)-5-{5-[3-(methylsulfonyl)phenyl]-2-thienyl}-1H-pyrazol-3-yl]methyl}(methyl)amino]acetonitrile] | 1000 to 10000 |
| CS(=O)(=O)c1cccc(-c2ccc(-c3cc(C(=O)N4CCCC4)nn3-c3c(Cl)cccc3Cl)c(Cl)c2)c1 [Example 143, (5-(3-chloro-3′-(methylsulfonyl)biphenyl-4-yl)-1-(2,6-dichlorophenyl)-1H-pyrazol-3-yl)(pyrrolidin-1-yl)methanone] | < 1000 |
| CS(=O)(=O)c1cccc(-c2ccc(-c3cc(C(F)(F)F)nn3-c3ccccc3Oc3ccccc3)s2)c1 [Example 1215, 5-{5-[3-(methylsulfonyl)phenyl]-2-thienyl}-1-[2-(phenyloxy)phenyl]-3-(trifluoromethyl)-1H-pyrazole] | < 1000 |
